Assay results as given in patent US20250288599A1, “PHARMACEUTICAL COMPOSITIONS AND METHODS FOR TREATING OSTEOARTHRITIS” (INSIGNIA PHARMACEUTICALS, LLC, priority 2024, published 2025).

Experiments:
[1] = system: PGE2 release from passage 3 normal human chondrocytes; test: Rescue versus preincubation regimens, IL-1β-induced PGE2 release from passage 3 normal human chondrocytes; type: cell-based; details: Homo sapiens, Chondrocyte, 25 μM Dec, singlet
Source text: The mechanisms of action (MOA) of a drug often dictate the timing and delivery of treatment regimens. While the MOA of compounds disclosed herein continue to be elucidated, experiments were designed to help establish how the drugs should be administered. Furthermore, these experiments will also help with hypothesis generation for subsequent MOA investigations. A low-passage chondrocyte monolayer model was utilized to establish how changes in drug delivery impact the inhibition of IL-1β-induced PGE2 release seen following treatment with the compounds under investigation.
Passage 3 normal human chondrocytes were seeded into tissue culture plates and then tested for compound activity by pre-treating for 24 hours, administering at the same time as activation, or by adding to cells following an overnight activation with IL-1β. Treatment groups included medium control, 25 μM decanoate (Dec), 28 mM D/L sodium Lac, and 10 μM LA. PGE2 release was then evaluated 24- or 96-hours post-activation with percent inhibitions calculated versus plate- and block-matched controls. The experiments were performed in singlet and are intended to be repeated to establish variance.

[2] = system: Col2a1 expression in dedifferentiated osteoarthritic chondrocytes; test: Col2a1 relative expression in high passage osteoarthritic chondrocyte monolayer model with TGF-β; type: cell-based, human; details: 14 days in culture with TGF-β; 28 mM Lac, 100 mm LA
Description: (§1) These compounds were tested in a high passage osteoarthritic chondrocyte monolayer model, alone or in combination with other agents, for both transcriptional regulation of standard markers and IL-1β-induced PGE2 production.

[3] = system: PGE2 release from dedifferentiated osteoarthritic chondrocytes; test: IL-1β-induced PGE2 release in high passage osteoarthritic chondrocyte monolayer model, 24 h; type: cell-based; details: Homo sapiens
Description: as §1

[4] = system: SOX9 expression in human osteoarthritic chondrocytes; test: SOX9 relative expression in high and low passage osteoarthritic chondrocytes, 7, 14 or 28 days; type: cell-based
Source text: Media was exchanged bi-weekly. […] SOX9 is a transcription factor vital to the development and maintenance of cartilage and is required for chondrogenesis. SOX9 promotes chondrocyte survival and transcriptionally activates cartilage-specific genes. SOX9 is repressed in hypertrophic chondrocytes (i.e. terminally differentiated osteoblast-like cells).

[5] = system: SOX9 expression in dedifferentiated osteoarthritic chondrocytes; test: SOX9 relative expression in high passage osteoarthritic chondrocyte monolayer model with TGF-β; type: cell-based, human; details: 14 days in culture with TGF-β; 28 mM Lac, 100 mm LA
Description: as §1

[6] = system: PGE2 release from normal human chondrocytes; test: IL-1β-induced PGE2 release from normal human chondrocytes, 24 h, DA vs decanoate working solutions; type: cell-based; details: for inhibition at 25 µM: Homo sapiens, Chondrocyte, 25 micromolar
Description: The activity of DA working solutions prepared in either saline or lactated ringer's (LR) isotonic solutions was assessed. […] In addition, concentrated decanoate working solutions in saline or LR were prepared and added to the cultures at a final concentration of 25 micromolar. PGE2 release was then compared to matching points on the DA or decanoate medium as well as saline and LR controls.

[7] = system: IL-1β release from human THP1 macrophages; test: Two-hit (LPS then ATP) inflammasome activation model, IL-1β release from THP1 macrophages; type: cell-based; details: for IC50: Homo sapiens
Source text: The proinflammatory cytokine, IL-1β, is released from cells upon activation of the inflammasome, a multi-protein proinflammatory complex. A two-hit model of inflammasome activation in THP1 macrophages was developed that entails an overnight stimulation with LPS followed by a second proinflammatory stimulus, extracellular ATP, which drives inflammasome assembly and subsequent IL-1β release from the cells into the media.

[8] = system: MMP13 expression in primary human chondrocytes from an osteoarthritic patient; test: MMP13 relative expression in primary human osteoarthritic chondrocytes treated with HA and/or Dex; type: cell-based; details: 0.1% HA, 0.1 μM Dex
Description: Without being bound by theory, it is hypothesized that HA treatment in combination with Dex could provide a therapeutic strategy that promotes HA's beneficial effects while maintaining Dex's anti-inflammatory response. To investigate this, primary human chondrocytes from an osteoarthritic patient were treated with 0.1% HA and/or 0.1 μM Dex in monolayer culture or micromass pellets for 14 to 28 days. Total mRNA was then extracted, and qRTPCR was performed with primer pairs specific for MMP13 and the housekeeping gene GAPDH. Relative expression was then calculated versus controls, with each sample normalized to GAPDH amplification.

[9] = system: MMP13 expression in human osteoarthritic chondrocytes; test: MMP13 relative expression in high and low passage osteoarthritic chondrocytes; type: cell-based; details: low passage osteoarthritic chondrocytes; 7, 14, 28 days
[10] = system: PGE2 in primary human osteoarthritic synoviocytes; test: Early, pretreatment and intracellular vs secreted PGE2 in IL-1β-stimulated human osteoarthritic synoviocytes; type: cell-based; details: 200 nanomolar DA or 500 nanograms/milliliter IL-1RA; IL-1β 1 nanogram/milliliter
Description: The concentrations in FIG. 31A were measured at hour three.
Cells were also treated with IL-IRA which inhibits IL-1β by binding the cell-surface […] and inhibiting its dimerization with the IL-1 receptor (IL-1R), effectively blocking IL-1β signaling.
FIG. 33 illustrates two bar graphs that depict the concentrations of PGE2 inside of the cell versus PGE2 that was secreted into the cell culture media. Specifically, the bar graph labeled “Intracellular” illustrates the concentrations of PGE2 inside of the cell and the bar graph labeled “Supernatent” illustrates the concentration of PGE2 that was secreted into the cell culture media. Synoviocytes were stimulated with IL-1β for 6 hours and then cell culture media harvested separately along with collecting cell lysates. […] To test this, the PGE2 concentrations inside of the cells and in the cell culture media were measured to compare them directly to each other.

[11] = system: PGE2 release from normal human chondrocytes; test: IL-1β-induced PGE2 release from normal human chondrocyte monolayers, 48 h, competitive EIA; type: cell-based
Description: Mechanical stress and inflammation are thought to sustain catabolic cycles of extracellular matrix deterioration during osteoarthritis. In particular, PGE2 correlates with increased protease production and discomfort or pain in osteoarthritis.
After 48-hours, PGE2 release was evaluated by competitive EIA, and relative potency was calculated versus dose responses of Dex alone.
After 48 hours, PGE2 release was evaluated by competitive enzyme immunoassay (EIA), and relative potency was calculated versus Dex alone.
Lac is commonly thought to be simply an end-product of anaerobic glycolysis; however, it may also have immunomodulatory effects and promote protein modifications that alter gene expression. The goal of this experiment was to determine how Lac supplementation affects early-phase, inflammatory, and late-stage redifferentiation in chondrocyte models. To establish how Lac may influence inflammation early in osteoarthritis, monolayers of normal human chondrocytes were exposed to Lac dose responses of up to 100 millimolar, concurrently with 0.5 nanograms per milliliter IL-1β for 48 hours. The release of PGE2 was then quantified using competitive EIA. To investigate how Lac affects transcriptional programs in dedifferentiated osteoarthritic chondrocytes, monolayer cultures and micromass pellets were treated for 14 days with 100 millimolar final concentrations of Lac, with and without 10 nanograms per milliliter transforming growth factor beta 3 (TGF-β3). Total RNA was then isolated, and relative expression of SOX9 or Col2a1 was calculated using qRT-PCR, normalized to GAPDH.

[12] = 24 h, rescue (added after overnight IL-1β activation), 24-hour harvest, 28 mM Lac, 10 μM LA
[13] = high passage, dedifferentiated osteoarthritic chondrocytes with TGF-β3, 14 days
[14] = 14-day micromass pellet culture

Molecule: O=C(O)CCCCC1CCSS1 (stereo not drawn) [LA, α-lipoic acid]
- inhibition at 10 µM [1, 12]: 85%
- increase in Col2a1 compared to controls [2]: 218 fold
- inhibition at 1 µM ([3]; LA 1 μM final): 33%
- inhibition at 10 µM ([3]; LA 10 μM final): 44%
- inhibition at 100 µM ([3]; LA 100 μM final): 93%
- SOX9 expression [4, 13]: increased SOX9 transcription
- increase in SOX9 transcription [5]: 4 fold

Molecule: CCCCCCCCCC(=O)[O-].[Na+] [Dec, sodium decanoate]
- inhibition at 25 µM ([1]; 24 h, added at the same time as IL-1β, 24-hour harvest): 53%
- inhibition at 25 µM [1, 12]: 72%
- inhibition at 25 µM ([1]; 96 h, added at the same time as IL-1β, 96-hour harvest): 76%
- inhibition at 25 µM ([1]; 96 h, rescue, 96-hour harvest, 28 mM Lac, 10 μM LA): 57%
- inhibition at 25 µM ([1]; pre-incubation 24 hours before IL-1β, 24-hour harvest, 28 mM Lac, 10 μM LA): 41%
- inhibition at 25 µM ([1]; pre-incubation, 96-hour harvest): 75%
- relative potency of decanoate as compared to DA ([6]; 95 percent confidence interval of 0.80-1.06): 0.92
- inhibition at 25 µM ([6]; prepared in LR): 65.2%
- inhibition at 25 µM ([6]; prepared in medium): 62.3%
- inhibition at 25 µM ([6]; prepared in saline): 63.2%
- increase in potency of sodium decanoate by 25 nanomolar Dex [7]: 4.6 ×
- IC50 ([7]; THP-1, repeated experiments comparing DA to sodium decanoate): 146 µM
- IC50 ([7]; THP-1, sodium decanoate with addition of 25 nanomolar Dex): 31.5 µM

Molecule: hyaluronic acid [HA]
- Observed Relative expression of MMP13 [8, 14]: −1.6 fold
- Observed Relative expression of MMP13 ([8]; 28-day monolayer culture): 1.0 fold

Molecule: C[C@@H]1C[C@H]2[C@@H]3CCC4=CC(=O)C=C[C@]4(C)[C@@]3(F)[C@@H](O)C[C@]2(C)[C@@]1(O)C(=O)COP(=O)(O)O [Dxp, dexamethasone phosphate, reference compound]
- MMP13 transcription [9]: reduce MMP13 transcription
- SOX9 expression [4, 13]: decreased expression of SOX9
- SOX9 expression ([4]; low passage osteoarthritic chondrocytes, 7, 14, 28 days): temporal decrease in expression of SOX9

Molecule: IL-1RA: IL-1 Receptor Antagonist, blocks IL-1β signaling
- PGE2 release after pretreatment (5 minutes, 1 hour, or 2 hours) then IL-1β 10 minutes or 1 hour [10]: consistently higher than PGE2 levels in DA treated cells

Molecule: C[C@@H]1C[C@H]2[C@@H]3CCC4=CC(=O)C=C[C@]4(C)[C@@]3(F)[C@@H](O)C[C@]2(C)[C@@]1(O)C(=O)CO [Dex, dexamethasone, reference compound]
- Observed Relative expression of MMP13 [8, 14]: −38.6 fold
- Observed Relative expression of MMP13 ([8]; 28-day monolayer culture): −3.6 fold
- inhibition at 0.01 µM ([11]; Homo sapiens, Chondrocyte, Dex 10 nanomolar final, IL-1β 500 pg/mL, 48 h): 100%
- concentration at which statistical significance of PGE2 suppression was observed ([11]; IL-1β 48 h): 100 picomolar
- increased Dex potency by 100 micromolar DA [7]: 1.969 ×
- IC50 ([7]; THP-1, Dex phosphate alone, 1 picomolar to 10 micromolar): 0.046 µM
- IC50 ([7]; THP-1, Dex with addition of 100 micromolar DA): 0.0234 µM
